In US6887981B2, “Natural antibacterial peptide, the nucleotide sequence encoding it and the use thereof” (Shanghai CAS Shenglonda Biotech (Group) Co., Ltd., priority 2002, dated 2005):

B1: Bin1b: natural antibacterial peptide of beta-defensin family expressed in rat caput epididymidis; SEQ ID NO:2, mature form SEQ ID NO:3 (protein, listed as Homo sapiens)
chain: MKVLLLFAVFFCLVQRNSGDIPPGIRNTVCFMQRGHCRLFMCRSGERKGDICSDPWNRCCVSSSIKNR
modifications: ends and bridges not checked

How the values were obtained:
[1] = EDS rat model, androgen (serum testosterone) level after EDS injection; format: in vivo, Sprague-Dawley rat; conditions: adult rat, intraperitoneal EDS 7.5 mg/100 g bodyweight; restored in about two weeks
Protocol: The “▴” line represents rat serum testosterone level at various time intervals after EDS injection. The “♦” line represents rat Bin1b expression changes which are calibrated by 18s level.
Adult Sprague-Dawley was intraperitoneally injected with EDS (7.5 mg/100 g bodyweight) in DMSO-H2O (1:3, v/v). The rats were sacrificed on day 1, 3, 7, 14, 21, 28 and 42. The rat without EDS injection served as the negative control. 20 ug total RNA was extracted from rat caput epididymis, fractionated by 1.2% formaldehyde agarose gel electrophoresis, blotted onto Hybond-N+ membrane and hybridized with a probe located at Bin1b cDNA 3′ terminal and 18s ribosome RNA probe.

E. coli = assay: Antimicrobial activity of secretions of primary epididymal epithelial cultures, CFU counting; format: cell-based; conditions: concluded from caput culture secretions and antisense block
Protocol: FIG. 7A. […] 100 colony forming units (CFU) of E. coli was added to cultures 16 hours prior to examination.
A total of 100 colony-forming units (CFU) of E. coli was added to the apical compartment of the epithelial cells separately from caput epididymis and cauda epididymis. The medium was collected 16 hours later for CFU counting.

| Molecule | secretion of androgen after EDS injection [1] | antimicrobial activity of Bin1b (E. coli) |
| --- | --- | --- |
| CS(=O)(=O)OCCOS(C)(=O)=O [EDS, Ethylene Dinethamesulfonate] | decreased immediately | – |
| B1 | – | antimicrobial activity |
